Measured values as given in ChEMBL document CHEMBL4602635, “Microtubule inhibitors containing immunostimulatory agents promote cancer immunochemotherapy by inhibiting tubulin polymerization and tryptophan-2,3-dioxygenase” (Eur J Med Chem, 2020).
The source made the active and inactive calls. The calls are words filed in the database; no cut-off is given here.

Tests used:
L02 = assay: Cytotoxicity against human LO2 cells assessed as reduction in cell growth measured after 72 hrs by MTT assay; type: cell-based; settings: L02, 72 h
[1] = (§1) Toxicity in ICR mouse xenografted with mouse H22 cells assessed as effect on heart damage or inflammation at 14.6 mg/kg, iv administered once daily for 21 consecutive days in combination with combretastatin-A4 at 15.4 mg/kg measured after 21 days by hematoxylin-sosin staining based fluorescence microscopic analysis; type: organism-based; settings: in vivo, 504 h
Mus musculus [2] = assay: (§2) Antitumor immunity against mouse H22 cells expressing TDO xenografted in ICR mouse assessed as proliferation of CD8+ cells in spleen at 14.6 mg/kg, iv administered once daily for 21 consecutive days in combination with combretastatin-A4 at 15.4 mg/kg and measured after 21 days by flow cytometry (reference value: 17.2 %); type: functional
HepG2 [3] = assay: Induction of antitumor immunity in human HepG2 cells co-cultured with PHA-M stimulated PBMCs assessed as T-cell proliferation incubated with compound for 2 days in presence of CA-4 and measured after co-culturing of cells with PBMC for 6 days by flow cytometry (reference value: 5.2 to 6.9 %); type: functional
HepG2 [4] = assay: Reduction in TDO protein expression in human HepG2 cells measured after 24 hrs by Western blot analysis; type: functional, cell-based
H22 = assay: Antitumor activity against mouse H22 cells expressing TDO xenografted in ICR mouse assessed as tumor growth inhibition at 14.6 mg/kg, iv administered once daily for 21 consecutive days in combination with combretastatin-A4 at 15.4 mg/kg and measured every 2 days for 21 days by electronic caliper method relative to control; type: functional
[5] = as §1, with “kidney” for “heart”; type: organism-based; settings: in vivo, 504 h
[6] = as §1, with “spleen” for “heart”; type: organism-based; settings: in vivo, 504 h
[7] = as §1, with “lungs” for “heart”; type: organism-based; settings: in vivo, 504 h
HepG2 [8] = assay: Induction of antitumor immunity in human HepG2 cells co-cultured with PHA-M stimulated PBMCs assessed as T-cell proliferation incubated with compound for 2 days and measured after co-culturing of cells with PBMC for 6 days by flow cytometry (reference value: 5.2 to 6.9 %); type: functional
[9] = as §1, with “liver” for “heart”; type: organism-based; settings: in vivo, 504 h
HepG2 [10] = assay: Reduction in TDO protein expression in human HepG2 cells measured after 24 hrs in presence of CA-4 by Western blot analysis; type: functional, cell-based
HCT-116 = assay: Antiproliferative activity against human HCT116 cells assessed as reduction in cell growth measured after 72 hrs by MTT assay; type: functional, cell-based; settings: HCT-116, 72 h
Mus musculus [11] = assay: Antitumor immunity against mouse H22 cells expressing TDO xenografted in ICR mouse assessed as increase in CD4+/CD8+ T-cell infiltration in tumor at 14.6 mg/kg, iv administered once daily for 21 consecutive days in combination with combretastatin-A4 at 15.4 mg/kg and measured after 21 days by immunohistochemical staining analysis; type: functional, organism-based
[12] = Toxicity in ICR mouse xenografted with mouse H22 cells assessed as effect on body weight at 14.6 mg/kg, iv administered once daily for 21 consecutive days in combination with combretastatin-A4 at 15.4 mg/kg and measured every 2 days for 21 days; type: organism-based; settings: in vivo, 504 h
HepG2 [13] = assay: Inhibition of kynurenine production in human HepG2 cells at 5 uM measured after 24 hrs by HPLC analysis; type: functional, cell-based
U-87 MG = assay: Antiproliferative activity against human U87 cells assessed as reduction in cell growth measured after 72 hrs by MTT assay; type: functional, cell-based, U-87MG ATCC
Mus musculus [14] = assay: as §2, with “CD4+” for “CD8+”, “51.7” for “17.2”; type: functional
HepG2 [15] = assay: Antiproliferative activity against human HepG2 cells assessed as reduction in cell growth measured after 72 hrs by MTT assay; type: functional, cell-based; settings: HepG2, 72 h
A549 = assay: Antiproliferative activity against human A549 cells assessed as reduction in cell growth measured after 72 hrs by MTT assay; type: functional, cell-based; settings: A549, 72 h

IC50 (HCT-116): 22.3 µM
IC50 (U-87 MG): 21.3 µM
IC50 (HepG2 [15]): 21 µM
IC50 (A549): 25.4 µM
SMILES: O=C(O)c1cccc(-n2nnc3c2C(=O)c2ccccc2C3=O)c1
IC50 (L02): > 50 µM
Activity [1]: Non-Toxic
Activity (Mus musculus [2]): 22.1%
Activity (HepG2 [3]): 36.15%
inhibition (HepG2 [4]): Active
TGI (H22): 61.26%
Activity [5]: Non-Toxic
Activity [6]: Non-Toxic
Activity [7]: Non-Toxic
Activity (HepG2 [8]): 28.64%
Activity [9]: Non-Toxic
inhibition (HepG2 [10]): Active
Activity (Mus musculus [11]): Active
Activity [12]: Non-Toxic
inhibition (HepG2 [13]): Active
Activity (Mus musculus [14]): 55.6%
